The record followed here is patent publication US20260097046A1, “PLASMODIUM FALCIPARUM BLOOD STAGE INHIBITORS” (University of Georgia Research Foundation, Inc., priority 2023, published 2026).

The data set can be described thus: Solubility by HPLC assay. Type of data set: physicochemical. The settings on record: pH 7.4, HPLC assay. As to the method:
Solubility was assessed for selected compounds using an HPLC assay.

For the compound `Cc1ccc(-c2cncc(C(=O)N(C)c3ccc(Cl)cc3)c2)cc1` [APZ-2160, N-(4-chlorophenyl)-N-methyl-5-(p-tolyl)nicotinamide], the “Solubility (μM) at pH 7.4” value is recorded as 12.8 μM.

For `Cc1ccc(N(C)C(=O)c2ncn(-c3ccc(C)cc3)n2)cc1` [APZ-2327, N-methyl-N,1-di-p-tolyl-1H-1,2,4-triazole-3-carboxamide], the “Solubility (μM) at pH 7.4” value was found to be 19.1 μM.
